From ChEMBL document CHEMBL1201862, “PubChem BioAssay data set” (2004)
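Results reflect a 48-hour exposure of cells in 96-well plates to compound at five concentrations. Abbreviation: GI50, concentration required for 50% inhibition of growth.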 Active and inactive are the calls of the source. Cut-off read from the data, not from the text of the source: active = GI50 up to about 1.1 µM and inactive = higher.

How the values were obtained:
Assay in all cases: NCI tumour cell line growth inhibition, 48 h
[1] = system: OVCAR-5
[2] = system: SR
[3] = system: OVCAR-8
[4] = system: Hs-578T
[5] = system: MCF7
[6] = system: SNB-19
[7] = system: HOP-62
[8] = system: A498
[9] = system: HT-29
[10] = system: MDA-MB-435
[11] = system: TK-10
[12] = system: IGROV-1
[13] = system: A549
[14] = system: PC-3
[15] = system: NCI-H226
[16] = system: OVCAR-4
[17] = system: HCT-116
[18] = system: EKVX
[19] = system: CCRF-CEM
[20] = system: RPMI-8226

Measured: GI50

CCCCCCN1CCc2c(C)c(C#N)c3nc4ccccc4n3c21
inactive: [1] > 100 µM | [2] > 100 µM | [3] 29.2 µM | [4] 8.73 µM | [5] 14.5 µM | [6] 80.4 µM | [7] 92.9 µM | [8] 76.6 µM | [9] 18.5 µM | [10] 17 µM | [11] > 100 µM | [12] > 100 µM | [13] 50.2 µM | [14] 7.82 µM | [15] > 100 µM | [16] 25.9 µM | [17] 16.5 µM

CC(=O)Nc1ccc2c(C(=O)O)c(C)c(O)nc2n1
inactive: [18] > 100 µM | [1] > 100 µM | [2] > 10 µM | [3] 83.4 µM | [4] > 100 µM | [5] > 100 µM | [6] 25.5 µM | [9] > 100 µM | [10] > 100 µM | [11] > 100 µM | [12] > 100 µM | [13] > 100 µM | [19] > 10 µM | [14] > 100 µM | [15] 33.7 µM | [20] > 100 µM | [17] 71.3 µM

COc1cccc(/C=C/C2=NN(c3cccc(S(=O)(=O)O)c3)C3(C2)SCC(=O)N3c2nc3ccccc3s2)c1 (centres undefined)
inactive: [18] 69.2 µM | [1] > 100 µM | [2] 23.9 µM | [3] 40.7 µM | [4] 32.7 µM | [5] 27.6 µM | [6] 52.5 µM | [8] 33 µM | [9] 64.7 µM | [10] 24.4 µM | [11] 28.8 µM | [12] 36.7 µM | [13] 60.3 µM | [19] 30.8 µM | [14] 37.9 µM | [15] 23.8 µM | [16] 49.4 µM | [20] 22.5 µM | [17] 62.7 µM

COc1ccc2cc3c4cc5c(cc4cc[n+]3cc2c1OC)OCO5
inactive: [18] 6.22 µM | [1] 47.5 µM | [3] 2.37 µM | [4] 3.26 µM | [5] 20 µM | [6] 3.15 µM | [7] 5.6 µM | [8] > 100 µM | [9] 26.3 µM | [10] 6.95 µM | [11] 19.9 µM | [12] 8.11 µM | [13] 18.3 µM | [19] 6.43 µM | [14] 14.2 µM | [15] 26.4 µM | [16] 20.6 µM | [20] 8.13 µM | [17] 15.1 µM

O=[As](O)(O)c1ccc(/N=N/c2ccc(O)cc2)cc1
inactive: [18] > 100 µM | [1] > 100 µM | [3] > 100 µM | [4] > 100 µM | [5] > 100 µM | [6] > 100 µM | [7] > 100 µM | [8] > 100 µM | [9] > 100 µM | [10] > 100 µM | [11] > 100 µM | [12] > 100 µM | [13] > 100 µM | [19] > 100 µM | [14] > 100 µM | [15] > 100 µM | [16] > 100 µM | [20] > 100 µM | [17] > 100 µM

COc1ccc(OCC(=N/NC(=O)c2ccncc2)/N=C/c2cccnc2)cc1
inactive: [18] > 100 µM | [1] > 100 µM | [3] > 100 µM | [4] 57.9 µM | [5] 73.1 µM | [6] > 100 µM | [7] 72.1 µM | [8] 65.3 µM | [9] > 100 µM | [10] 18.2 µM | [11] > 100 µM | [12] > 100 µM | [13] 92.9 µM | [19] > 100 µM | [14] > 100 µM | [15] 61.1 µM | [16] 96.6 µM | [20] 67.6 µM | [17] > 100 µM

O=C1CCN2C(=N1)Sc1ccccc12
inactive: [18] > 100 µM | [1] > 100 µM | [2] > 100 µM | [3] > 100 µM | [4] > 100 µM | [5] > 100 µM | [6] > 100 µM | [7] > 100 µM | [9] > 100 µM | [10] > 100 µM | [11] > 100 µM | [12] > 100 µM | [13] > 100 µM | [19] > 100 µM | [14] > 100 µM | [15] > 100 µM | [16] > 100 µM | [20] > 100 µM | [17] > 100 µM
